Test results published in patent US12435316B2, “Three dimensional human brain tumor models” (priority 2018, dated 2025).

Test system: 3D patient-derived meningioma models (pediatric patient's meningioma tissue)
Assay: Drug treatment of 3D patient-derived meningioma models, live cell staining (calcein AM) and confocal imaging
Format: cell-based, human
Conditions: one month-old 3D pediatric meningioma models; drug 0.05 to 0.8 mM for 48 hours; calcein AM live stain; compared to etoposide, carmustine, irinotecan hydrochloride, temozolomide
Description: FIGS. 7A-7B show drug treatment of 3D patient-derived meningioma models. A pediatric patient's meningioma tissue was used to generate replicates of 3D tumor models. One month-old models were treated with chemotherapeutic drugs, etoposide (VP16), carmustine (BCNU), lomustine (CCNU), irinotecan hydrochloride (CPT11) and temozolomide (TMZ) of 0.05 to 0.8 mM for 48 hours. The models were stained with calcein AM (2 uM) for live cells and confocal imaged ([…] section, 35 sections). (FIG. 7A) Maximum projection of 3D image stacks of drug-treated models. Number indicates drug concentration in mM. Ctrl, control. Scale bar, […]. (FIG. 7B) Quantification of live cell counts in relation to drug doses.
FIGS. 7A-7B show an example of drug study using patient-derived tumor models. This example used a pediatric meningioma model to test commonly used chemotherapeutic drugs (etoposide, carmustine, lomustine, irinotecan hydrochloride and temozolomide). […] Additional studies will compare the in vitro findings with the patient's clinical responses to further determine the most optimal drug regimen.
Live/Dead Assay was used to image live cells in cultures, according to the manufacturer's protocol (ThermoFisher Scientific). […] The stained cultures were imaged with a fluorescence microscope at Ex/Em of 494/517 nm and 528/617 nm for Live and Dead stains, respectively. […]

## O=NN(CCCl)C(=O)NC1CCCCC1 [lomustine]
  tumor cell-killing effects (live cell counts in relation to drug doses): strongest tumor cell-killing effects
